Earlier results, collected in patent publication US20170304500A1, “MICROFABRICATED TISSUE SCAFFOLDS AND METHODS OF MAKING AND USING THE SAME” (TARA BIOSYSTEMS INC., priority 2014, published 2017).

System: artery and vein
Settings: released from hydrogel; reported in PNAS; cited from earlier work

In the case of “thymosin Beta-4: peptide controllably released from a hydrogel (SDKPDMAEIEKFDKSKLKKTETQEKNPLPSKETIEQEKQAGES; Thymosin beta-4 released from hydrogel; UniProt P62328 2-44, looked up)”, the angiogenesis is listed as “stimulated angiogenesis”.
